Laboratory results from ChEMBL document CHEMBL1921759, “Antiprotozoal activity of proton-pump inhibitors” (Bioorg Med Chem Lett, 2011).

Columns and labels:
Format in all cases: functional, organism-based
Trichomonas vaginalis [1] = assay: Antiprotozoan activity against Trichomonas vaginalis GT3 trophozoites compound treated for 48 hrs measured after 48 hrs washout period; details: GT3, 48 h
Giardia intestinalis [2] = assay: Antiprotozoan activity against Giardia intestinalis IMSS:0989:1 trophozoites compound treated for 48 hrs measured after 48 hrs washout period; details: Giardia duodenalis, IMSS:0989:1, 48 h
Entamoeba histolytica = assay: Antiprotozoan activity against Entamoeba histolytica HM1-IMSS trophozoites compound treated for 48 hrs measured after 48 hrs washout period
Trichomonas vaginalis [3] = assay: Antiprotozoan activity against Trichomonas vaginalis
Giardia intestinalis [4] = assay: Antiprotozoan activity against Giardia intestinalis; details: Giardia duodenalis

| SMILES | IC50 (Trichomonas vaginalis [1]) | IC50 (Giardia intestinalis [2]) | IC50 (Entamoeba histolytica) | IC50 (Trichomonas vaginalis [3]) | IC50 (Giardia intestinalis [4]) |
| --- | --- | --- | --- | --- | --- |
| COc1ccnc(C[S+]([O-])c2nc3cc(OC(F)F)ccc3[nH]2)c1OC (centres undefined) [PANTOPRAZOLE] | 0.0756 µM | 0.0157 µM | 0.0026 µM |  |  |
| COCCCOc1ccnc(C[S+]([O-])c2nc3ccccc3[nH]2)c1C (centres undefined) [RABEPRAZOLE] | 0.106 µM | 0.0181 µM | 0.0237 µM |  |  |
| CN(C)CCSc1nc2c(Cl)cc(Cl)cc2[nH]1 |  |  |  | 0.072 µM | 0.02 µM |
| COc1ccc2[nH]c([S+]([O-])Cc3ncc(C)c(OC)c3C)nc2c1 (centres undefined) [OMEPRAZOLE] | 0.122 µM | 0.0955 µM | 0.492 µM |  |  |
| Cc1c(OCC(F)(F)F)ccnc1C[S+]([O-])c1nc2ccccc2[nH]1 (centres undefined) [LANSOPRAZOLE] | 0.122 µM | 0.0731 µM | 0.347 µM |  |  |
